The source of these data is a melting point compilation (Tetko et al.; mined from patent text by program, amines drawn as free bases though some values may be those of a salt).

Broadly, the melting point is the temperature of the solid-liquid transition.

Bounds are passed on as bounds.

Turning to `O=c1[nH]c2ccccc2n1CCCN1CCN(c2n[nH]c3cc(F)ccc23)CC1`, the melting point lay within 236 to 238 °C.
With `COc1cccc(N2CCN(c3cc4c(cc3F)ncc3c4c(=O)c(C(=O)O)cn3C)CC2C)c1` (stereo not given), the melting point was found to be 285 °C.
On to `COc1ccc(S(=O)(=O)N(Cc2cccnc2)c2c(C(=O)O)cnc3onc(C)c23)cc1`, for which the melting point is 244 to 246 °C.
In the case of `CS(=O)(=O)N1Cc2sccc2C(O)C1` (stereo not given), the melting point was 140 °C.
Compound `CONC(c1ccccc1)c1cc(C(C)(C)C)c(O)c(C(C)(C)C)c1` (stereo not given) registered a melting point of 135 to 137 °C.
In turn, `CC1=Nc2ccccc2CC(c2ccncc2)N1C` (stereo not given) showed a melting point of 159 to 161 °C.
For `COc1ccccc1S(=O)(=O)OCC(=O)c1ccccc1` the value was 88 °C.
Next, `N#Cc1ccsc1N=Cc1ccc([N+](=O)[O-])s1`: 192 to 194 °C.
Compound `Cc1nn(-c2c(Cl)cc(C(F)(F)F)cc2Cl)cc1S(C)(=O)=O` came in with a melting point of 168 to 169 °C.
`Nc1cc(C(=O)O)c(F)c(F)c1F` displayed a melting point of 164 to 166 °C.
For `COc1ccc(N)cc1OCCCN1CCC(c2noc3cc(F)ccc23)CC1` the value was 94 to 95 °C; for `COc1cc(C)nc(NC(=O)NS(=O)(=O)c2cccc3nc(C)sc23)n1`, 178 to 180 °C.
`O=C1c2ccsc2S(=O)(=O)CCN1CCCCN1CCN(c2ncccn2)CC1` displayed a melting point of 161 to 163 °C.
For `COc1cc(COc2cccc3c2CN(C2CCC(=O)NC2=O)C3=O)ccc1OCCN(C)C` (stereo not given) the value was 190 to 192 °C.
Take `N#Cc1cccc(-n2cnc(-c3ccccn3)n2)c1`: the melting point was in the range of 194 to 195 °C.
As to `O=c1c2ccc(/C=C/c3ccc(O)cc3)cc2cnn1-c1ccccn1`, the melting point was determined as 272 °C.
As for `COC(=O)c1cccc2nc(N3CCOCC3)n(Cc3ccc(-c4ccccc4)c(-c4nnn[nH]4)c3)c12`, the melting point lay within 163 to 167 °C.
Regarding `COc1nc(C)cnc1N(C(=O)OCC(C)C)S(=O)(=O)c1cccnc1-c1ccc(I)cc1`, the melting point was in the range of 156 to 158 °C.
`COc1ccc(-c2cc(=O)n(CCc3ccc(OC)c(OC)c3)nc2-c2ccc(OC)cc2)cc1`: the melting point was 131 °C.
`CCCN(CCC)C1Cc2cc3c(=O)[nH]n(Cc4ccccc4)c(=O)c3cc2C1` (stereo not given): the melting point was 219 to 220 °C.
Compound `O=C1C(=Cn2ccnc2)C(c2ccc(Cl)cc2)c2ccc(Cl)cc21` (stereo not given) returned a melting point of 204 to 205 °C.
For `CC(=O)N1c2ccccc2[C@H](Nc2ccccc2C(=O)O)C[C@@H]1C` (relative stereo), the melting point fell in the range of 122 to 123 °C.
Compound `Cc1csc(NCCN2CCC(Nc3nc4ccccc4n3Cc3ccc(F)cc3)CC2)n1` showed a melting point of 184 °C.
Compound `CC(=O)n1cc(Cl)c(-c2ccccc2Cl)c1` gave a melting point of 82 to 84 °C.
Next, `Cn1c(-c2ccccc2Nc2cccc(C(F)(F)F)c2)n[nH]c1=O`: 178 to 180 °C; `COc1ccc(S(=O)(=O)N2CCC(N3N=C(c4ccc(OC)c(OC)c4)CCC3=O)CC2)cc1`: 197 to 198 °C.
Consider `CCCCN(CCCC)c1ccc(C=Cc2cc(C)c(C=CC3=C(C#N)C(=C(C#N)C#N)OC3(c3ccccc3)C(F)(F)F)cc2C)c(OC)c1` (stereo not given), for which the melting point was in the range of 177 to 179 °C.
On to `Cc1oc(-c2ccccc2)nc1COc1cccc(C#CC(C)n2oc(=O)[nH]c2=O)c1` (stereo not given), for which the melting point is 55 to 57 °C.
Compound `COc1cc2nc(C)nc(N3CCN(C(=O)Nc4ccc(Oc5ccccc5)cc4)CC3)c2cc1OC` showed a melting point of 146 to 147 °C.
For `COc1cn(-c2cccc(Br)c2F)nc(-c2ccnn2-c2ccccc2)c1=O` the value was 186 to 191 °C; for `COc1cccc2c1nc(Cl)n2C`, 118 to 119 °C.
Turning to `NNC(=O)c1ncn2ccccc12`, the melting point amounted to 189 °C.
`C[C@@H]1C[C@H](C)CN(S(=O)(=O)c2ccc(Cl)c(C(=O)NCCCC(=O)O)c2)C1` displayed a melting point of 193 to 195 °C.
For `O=S(=O)(c1ccc(O)cc1)c1ncsc1-c1ccccc1` the value was 195 °C; for `S=c1c2[nH]cnc2c2cccnc2n1-c1ccccc1`, more than 300 °C; for `COc1ccc(-c2nc(N)ncc2-c2ccc(=O)[nH]n2)cc1F`, 250 °C.
In turn, `Cn1nc(-c2cnc3[nH]cc(C(=O)NCC(C)(C)C)c3n2)c2ccc(F)cc21` gave a melting point of 294 to 295 °C.
On to `CCOC(=O)C=Cc1ccc(NC(=O)OC(C)(C)C)cc1`, for which the melting point is 105 to 109 °C.
Next, `CN(C)C(=O)Cc1ccc(CNC(=O)[C@@H](CCCNC(N)=N[N+](=O)[O-])NC(=O)C(c2ccccc2)c2ccccc2)cc1`: 198 to 200 °C; `Cc1cc(F)c(Cl)cc1[N+](=O)[O-]`: 57 to 58 °C.
Consider `CCOC(=O)C(=Cc1ccco1)c1csc(N)n1`, for which the melting point is 109 to 110 °C.
As for `Cc1c(CCO)c(=O)oc2c(O)c(O)ccc12`, the melting point lay in the range of 221 to 222 °C.
In the case of `C=CCCOc1ccc(CCCO)c(Oc2ncc(C(F)(F)F)cc2Cl)c1`, the melting point is 75.2 to 75.8 °C.
As for `FC(F)(F)n1cc(Br)cn1`, the melting point was 4 °C.
For `CCOC(=O)N1CCN(c2nc(NC(C)=O)ccc2F)CC1`, the melting point was 132 to 133 °C.
With `CCCOC(Cc1ccc(OCCc2nc(-c3ccccc3)oc2C)c2ccccc12)C(=O)O` (stereo not given), the melting point is 103 to 105 °C.
As to `CN(C)CCn1c(=O)c2cc(N)ccc2c2cnc3cc4c(cc3c21)OCO4`, the melting point lay within 245 to 246 °C.
The compound `COc1ccc(C(=O)c2noc(CC#N)n2)cc1` showed a melting point of 92 to 94 °C.
Next, `Cc1oc(C=Cc2ccccc2Cl)nc1CC#N`: 89 to 90 °C; `COc1ccc(-c2nc(N)n3nc(-c4ccco4)nc3n2)cc1`: more than 275 °C.
Regarding `COC(=O)NC(=O)C(Cc1ccc(OCCc2nc(-c3ccccc3)oc2C)cc1)C(=O)OC` (stereo not given), the melting point is 120 °C.
Next, `O=C(O)c1cc2sccc2nc1C(=O)O`: more than 380 °C; `CC(=O)S[C@@H](CCc1ccccc1C)C(=O)O`: 47 to 48 °C.
For `O=C(c1ccccc1)N(CCCn1cncn1)C1=Nc2cccc3cccc1c23` the value was 140 to 141 °C; for `CSC(=N)NC(c1ccccc1)c1ccc(C)cc1` (stereo not given), 130 to 132 °C; for `COc1ccc(N2CCN(c3c(C)c(C)c4c(c3C)OC(C)(C)C4c3ccc(C)cc3)CC2)cc1` (stereo not given), 160 to 162 °C.
`CC1(C)CCSc2ccc(CC#Cc3ccc(C(=O)O)c(O)c3)cc21` yielded a melting point of 195 to 196 °C.
Next, `CC#CCOc1ccc(S(=O)(=O)C2(C(=O)O)CCCN(Cc3ccc(Cl)cc3)C2)cc1` (stereo not given): 115 °C.
Compound `Brc1ccc2c3c(cccc13)C(NCCCCCn1ccnc1)=N2` had a melting point of 138 to 140 °C.
`CC(=O)OC[C@@H]1O[C@H](n2c(NC(C)C)nc3c(Cl)cccc32)[C@@H](OC(C)=O)[C@H]1OC(C)=O`: the melting point lay within 225 to 227 °C.
In turn, `c1ccc(CCN2CCN(c3n[nH]c4ccccc34)CC2)cc1` returned a melting point of 118 to 120 °C.
For `Sc1ncc(CCCCc2ccccc2)[nH]1` the value was 168 to 169 °C; for `COc1cccc(Oc2cccc(Oc3ccc4c(c3)OCO4)c2C(=O)O)c1`, 146 to 148 °C.
On to `CCC(C)Nc1c([N+](=O)[O-])cc(C(F)(F)F)c(C)c1[N+](=O)[O-]` (stereo not given), for which the melting point is 38 to 39 °C.
Regarding `CCc1nc2c(N)nc3cc(OCc4ccc(S(=O)(=O)NCCc5cc6ccccc6[nH]5)cc4)ccc3c2s1`, the melting point is 100 to 101 °C.
The compound `O=C(Cc1ccccc1Nc1c(Cl)cccc1Cl)NO` gave a melting point of 164 to 165 °C.
In turn, `CC(C)Oc1cc(CC(=O)O)c(F)cc1Cl` had a melting point of 57 to 58 °C.
In turn, `NC(Cc1c2ccccc2cc2ccccc12)(C(=O)O)C1CC(C(=O)O)C1` (stereo not given) gave a melting point of 213 to 216 °C.
The compound `O=c1[nH]c(S)ncc1OC1CCCCO1` (stereo not given) had a melting point of more than 300 °C.
`NC(=O)c1ncn2c1NCCC2c1cccc(C(F)(F)F)c1` (stereo not given) returned a melting point of 179 to 181 °C.
On to `Cc1cc2c(cc1N)OCO2`, for which the melting point lay in the range of 88 to 89 °C.
`NCCOc1cc(F)cc2c1OCCC2`: the melting point fell in the range of 68 to 70 °C.
As for `C=CCn1c(=O)[nH]c2ccccc2c1=N`, the melting point fell in the range of 223 to 224 °C.
In turn, `Fc1ccc(Nc2nc3ccccc3o2)cc1C(F)(F)F` returned a melting point of 190 to 191 °C.
With `CC1CC(O)CC2=CCC3C4CCC(=O)C4(C)CCC3C21C` (stereo not given), the melting point was 167 to 169 °C.
Compound `COc1ccc(C2=NN(C3CCCC3)C(=O)[C@H]3CC=CC[C@@H]23)cc1Cl` (relative stereo) came in with a melting point of 201 to 202 °C.
As to `CCOC(=O)C1=C(C)NC(CO)=C(C(=O)OCC)C1c1ccccc1OC` (stereo not given), the melting point lay in the range of 125 to 126 °C.
`N#CN1CCC(c2nn(-c3ccccc3)c3ccccc23)CC1` showed a melting point of 124 to 125 °C.
With `O=C(O)c1ncn2c1[C@@H]1CCCN1C(=O)c1cc(Cl)ccc1-2`, the melting point came to 227 °C.
For `CCOC(=O)c1ncn2c1c(S)nc1ccccc12` the value was 251 to 253 °C; for `CCOC(=O)NCC(O)c1cccc2c1CCN2C(=O)c1ccccc1` (stereo not given), 143 °C; for `O=C1CCNN1c1ccc(Cl)cc1`, 120 to 122 °C.
Compound `CN(Cc1coc(C=Cc2ccc(C(F)(F)F)cc2)n1)c1ccc(CCCCn2ccnn2)cc1` returned a melting point of 112 to 114 °C.
In turn, `Cc1cnc(-c2ccc(O)cc2)o1` returned a melting point of 177 to 178 °C.
Turning to `CCOC(=O)C(O)c1cc(Br)cn1CCOC(C)=O` (stereo not given), the melting point worked out at 59 °C.
For `O=C1N(c2ccc(F)cc2)c2ccccc2C1(O)c1cc2c(cc1O)OCCO2` (stereo not given), the melting point was in the range of 195 to 200 °C.
`COC(=O)Cc1cc(=O)[nH]c2ccccc12` registered a melting point of 209 to 210 °C.
`CN(C)CCOc1ccc(C=NCCN=Cc2ccc(OCCN(C)C)cc2O)c(O)c1` showed a melting point of 92 to 94 °C.
`CCOCc1nc2c(c(C)c(C)n3nnnc23)n1CCNC(=O)Nc1ccccc1`: the melting point was more than 250 °C.
`c1ccc(OCCN2CCN(Cc3c[nH]c4ncccc34)CC2)cc1`: the melting point is 143 °C.
